Assay results as given in ChEMBL document CHEMBL6127046, “Design, synthesis, and preclinical evaluation of 11C/18F-labeled inhibitors for RIPK1 PET imaging” (Eur J Med Chem, 2024).
pEC50, pKd: −log10 of the molar value. Each block holds one molecule with its values, some of them ahead of it.

Columns and labels:
L929 = test: Anti-necroptosis activity against TNFalpha/Z-VAD-FMK-induced mouse L929 cell necroptosis model assessed as cell viability incubated for 24 hrs by CCK8 assay; assay type: functional, cell-based; details: L929, 24 h
HT-29 = test: Anti-necroptosis activity against TNFalpha/SM-164/Z-VAD-FMK-induced human HT-29 cell necroptosis model assessed as cell viability incubated for 24 hrs by CCK8 assay; assay type: functional, cell-based; details: HT-29, 24 h
U-937 = test: Anti-necroptosis activity against TNFalpha/SM-164/Z-VAD-FMK-induced human U-937 cell necroptosis model assessed as cell viability incubated for 24 hrs by CCK8 assay; assay type: functional, cell-based; details: U-937, 24 h
[1] = Lipophilicity, logD of compound at pH 7.4 by shake-flask method; assay type: physicochemical; details: buffer
[2] = molecular target: T1, Receptor-interacting serine/threonine-protein kinase 1 (Homo sapiens, UniProt Q13546); test: Binding affinity to RIPK1 (unknown origin) by KINOMEscan method
T1 sequence (Q13546 whole entry): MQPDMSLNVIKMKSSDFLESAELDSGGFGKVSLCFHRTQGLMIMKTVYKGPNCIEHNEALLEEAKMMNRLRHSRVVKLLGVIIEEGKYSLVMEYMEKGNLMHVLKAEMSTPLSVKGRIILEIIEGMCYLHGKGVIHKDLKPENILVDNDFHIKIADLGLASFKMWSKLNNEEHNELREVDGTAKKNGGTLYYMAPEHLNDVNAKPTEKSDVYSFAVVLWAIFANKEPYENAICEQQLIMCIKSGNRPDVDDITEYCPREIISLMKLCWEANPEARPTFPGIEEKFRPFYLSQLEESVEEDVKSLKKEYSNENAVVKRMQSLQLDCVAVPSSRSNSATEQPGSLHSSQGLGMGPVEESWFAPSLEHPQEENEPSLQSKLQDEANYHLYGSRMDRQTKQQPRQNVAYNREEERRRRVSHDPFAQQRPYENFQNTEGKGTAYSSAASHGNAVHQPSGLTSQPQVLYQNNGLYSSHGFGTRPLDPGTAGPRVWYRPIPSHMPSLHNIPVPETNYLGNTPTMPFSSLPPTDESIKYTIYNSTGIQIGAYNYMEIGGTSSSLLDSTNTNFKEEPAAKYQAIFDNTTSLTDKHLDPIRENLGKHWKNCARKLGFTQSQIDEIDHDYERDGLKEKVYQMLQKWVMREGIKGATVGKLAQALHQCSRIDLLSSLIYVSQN

[3] = Drug uptake in mouse brain assessed as maximum standardized uptake value measured upto 60 mins by PET imaging method; assay type: ADME, tissue-based; details: in vivo, 1 h
[4] = Drug uptake in mouse striatum measured upto 60 mins by PET imaging method; assay type: ADME; details: in vivo, 1 h
[5] = Drug uptake in mouse thalamus measured upto 60 mins by PET imaging method; assay type: ADME; details: in vivo, 1 h
[6] = Drug uptake in mouse hippocampus measured upto 60 mins by PET imaging method; assay type: ADME; details: in vivo, 1 h
[7] = Drug uptake in mouse brain in presence of 1-(7-fluoro-2,3-dihydrobenzo[f][1,4]oxazepin-4(5H)-yl)-2,2-dimethylbutan-1-one by autoradiography; assay type: ADME, tissue-based; details: in vivo
[8] = Drug uptake in mouse brain in presence of Nec-1s by autoradiography; assay type: ADME, tissue-based; details: in vivo
[9] = Metabolic stability in mouse plasma assessed as remaining compound measured at 5 mins by HPLC analysis; assay type: ADME, cell-free; details: read-out: Stability
[10] = Metabolic stability in mouse plasma assessed as remaining compound measured at 10 mins by HPLC analysis; assay type: ADME, cell-free; details: read-out: Stability
[11] = Metabolic stability in mouse plasma assessed as remaining compound measured at 30 mins by HPLC analysis; assay type: ADME, cell-free; details: read-out: Stability
[12] = Drug metabolism in mouse plasma assessed as retention time; assay type: ADME, cell-free
[13] = Drug metabolism in mouse plasma measured at 11 mins; assay type: ADME, cell-free
[14] = Metabolic stability in mouse brain assessed as remaining compound measured at 5 mins by HPLC analysis; assay type: ADME, tissue-based; details: read-out: Stability
[15] = Metabolic stability in mouse brain assessed as remaining compound measured at 30 mins by HPLC analysis; assay type: ADME, tissue-based; details: read-out: Stability
[16] = Drug metabolism in mouse blood measured after 10 to 12 mins by HPLC analysis; assay type: ADME, tissue-based; details: time 10-12 min
[17] = Drug metabolism in mouse brain measured after 10 to 12 mins by HPLC analysis; assay type: ADME, tissue-based; details: time 10-12 min

SMILES: CC(C)C(=O)Nc1nc2cc(-c3ccc4c(c3)c(C(=O)NC(C)c3ccccc3)cn4C)ccn2n1 (stereo unspecified)
pEC50 (L929): 8.40
pEC50 (HT-29): 7.90
pEC50 (U-937): 7.91

SMILES: O=C(C1CCN(c2ncc(F)cn2)CC1)N1CCOc2ccccc2C1
pEC50 (L929): 6.08

logD [1]: 3.1
pKd [2]: 7.74
SMILES: CCC(C)(C)C(=O)N1CCOc2ccc(F)cc2C1
pEC50 (L929): 7.70
pEC50 (HT-29): 8.09
pEC50 (U-937): 7.60

SMILES: O=C(C1CCN(c2ncc(Br)cn2)CC1)N1CCOc2ccc(Br)cc2C1
pEC50 (L929): < 5.00

SMILES: O=C(C1CCN(c2ncc(O)cn2)CC1)N1CCOc2ccc(F)cc2C1
pEC50 (L929): < 5.00

SMILES: COc1nc(N2CCC(C(=O)N3CCOc4ccc(F)cc4C3)CC2)ncc1F
pEC50 (L929): 5.18

SMILES: COc1ccc2c(c1)CN(C(=O)C1CCN(c3ncc(F)cn3)CC1)CCO2
pEC50 (L929): 5.59

SUVmax [3]: 1.5
Drug uptake [4]: Active
Drug uptake [5]: Active
Drug uptake [6]: Active
Drug uptake [7]: Not Active
Drug uptake [8]: Not Active
remaining at 5 min [9]: 72%
remaining at 10 min [10]: 51%
remaining at 0.5 h [11]: 25%
Retention_time [12]: 2.8 min
Drug metabolism [13]: Metabolite_Detected
remaining at 5 min [14]: 86%
remaining at 0.5 h [15]: 44%
Drug metabolism [16]: Metabolite_Detected
Drug metabolism [17]: Metabolite_Detected
SMILES: CCC(C)(C)C(=O)N1CCOc2ccc([18F])cc2C1

logD [1]: 2.2
SMILES: O=C(C1CCN(c2ncc(F)cn2)CC1)N1CCOc2ccc(F)cc2C1
pEC50 (L929): 6.11
pEC50 (HT-29): 5.29
pEC50 (U-937): 5.56

SMILES: CCC(C)(C)C(=O)N1CCOc2ccc(O)cc2C1
pEC50 (L929): < 5.00

SMILES: CCC(C)(C)C(=O)N1CCOc2ccc(OC)cc2C1
pEC50 (L929): 5.05

SMILES: O=C(C1CCN(c2ncc(F)cn2)CC1)N1CCOc2ccc(Br)cc2C1
pEC50 (L929): 5.16

SMILES: O=C(C1CCN(c2ncc(F)cn2)CC1)N1CCOc2ccc(O)cc2C1
pEC50 (L929): < 5.00

SUVmax [3]: 1.5
SMILES: O=C(C1CCN(c2ncc([18F])cn2)CC1)N1CCOc2ccc(F)cc2C1

SMILES: O=C(C1CCN(c2ncc(Br)cn2)CC1)N1CCOc2ccccc2C1
pEC50 (L929): < 5.00

SMILES: COc1nc(N2CCC(C(=O)N3CCOc4ccc(Br)cc4C3)CC2)ncc1F
pEC50 (L929): 5.28

SMILES: COc1cnc(N2CCC(C(=O)N3CCOc4ccccc4C3)CC2)nc1
pEC50 (L929): 5.37

SMILES: O=C(C1CCN(c2ncc(Br)cn2)CC1)N1CCOc2ccc(F)cc2C1
pEC50 (L929): 5.63

SUVmax [3]: 0.8
SMILES: [11CH3]Oc1cnc(N2CCC(C(=O)N3CCOc4ccc(F)cc4C3)CC2)nc1

logD [1]: 1.8
SMILES: COc1cnc(N2CCC(C(=O)N3CCOc4ccc(F)cc4C3)CC2)nc1
pEC50 (L929): 6.42
pEC50 (HT-29): 6.70
pEC50 (U-937): 5.66
